{"source": "patent US8436205B2", "about": "“Tetrahydronaphthalene compounds” (Actelion Pharmaceuticals Ltd., priority 2008, dated 2013)", "key": {"[1]": {"system": "human Cav3.1 Cav3.2 or Cav3.3 channel", "experiment": "In vitro assay T channel (FLIPR, Ca2+-induced calcium fluorescence)", "format": "cell-based", "conditions": "HEK293 cells; 10 mM Ca2+; geometric mean from n values; read-out: T channel antagonistic activity IC50", "method": "The T channel antagonistic activity (IC50 values) of the compounds of formula (I) is determined in accordance with the following experimental method and data are shown in Table 1.\nHuman embryonic kidney (HEK293) cells expressing the human Cav3.1 Cav3.2 or Cav3.3 channel, respectively, are grown in culture medium (DMEM containing 10% heat-inactivated fetal calf serum (FCS), 100 U/ml penicillin, 100 μg/ml streptomycin and 1 mg/ml G418). The cells are seeded at 20.000 cells/well into 384-well black clear bottom sterile plates (poly-L-lysine-coated, Becton Dickinson). The seeded plates are incubated overnight at 37° C. in 5% CO2. The Ca^2+ solution is prepared as 100 mM stock solution in 100 mM tetraethylammoniumchloride (TEA-chloride), 50 mM HEPES, 2.5 mM CaCl2, 5 mM KCl, 1 mM MgCl2, adjusted to pH 7.2 with TEA-hydroxide, for use in the assay at a final concentration of 10 mM. Antagonists are prepared as 10 mM stock solutions in DMSO, then diluted in 384 w plates first in DMSO, then in 100 mM TEA-chloride, 50 mM HEPES, 2.5 mM CaCl2, 5 mM KCl, 1 mM MgCl2, adjusted to pH 7.2 with TEA-hydroxide, to obtain 9× stocks. On the day of the assay, 25 μl of staining buffer (HBSS containing 20 mM HEPES, 0.375 g/l NaHCO3 and 3 μM of the fluorescent calcium indicator fluo-4 AM (1 mM stock solution in DMSO, containing 10% pluronic) is added to each well of the seeded plate. The 384-well cell-plates are incubated for 60 min at 37° C. in 5% CO2 followed by washing with 2×50 μl per well using HBSS containing 0.1% BSA, 20 mM HEPES, 0.375 g/l NaHCO3, leaving 50 […] of this buffer for equilibration at room temperature (30-60 min). Within the Fluorescent Imaging Plate Reader (FLIPR, Molecular Devices), antagonists are added to the plate in a volume of 6.25 Owen, incubated for 3 min, and finally 6.25 […] of Ca^2+ solution is added. Fluorescence is measured for each well at 2 second intervals for 8 minutes, and the area under the curve of each fluorescence peak is compared to the area of the fluorescence peak induced by 10 mM Ca^2+ with vehicle in place of antagonist. For each antagonist, the 1050 value (the concentration (in nM) of compound needed to inhibit 50% of the Ca^2+-induced fluorescence response) up to 10 μM is determined. The calculated IC50 values of the compounds may fluctuate depending on the daily cellular assay performance. Fluctuations of this kind are known to those skilled in the art."}, "isolated mouse hearts": {"system": "isolated mouse hearts", "experiment": "Effect on isolated hearts according to the Langendorff method (Lgdff)", "method": "The compounds were tested for their potential to reduce blood pressure and their effect on the contractility of the heart muscle. EC50 values on isolated mouse hearts were determined according to Literature (Doring H J., The isolated perfused heart according to Langendorff technique—function—application, Physiol. Bohemoslov. 1990, 39(6), 481-504; Kligfield P, Horner H, Brachfeld N., A model of graded ischemia in the isolated perfused rat heart, J. Appl. Physiol. 1976 June, 40(6), 1004-8).\n7 example compounds have been measured using the procedure described above for the Langendorff experiment. The measured EC50 values were in the range of 7 to 29 nM with an average of 13 nM."}}, "data": [{"smiles": "COCC(C)(COC)CN(CCCN(C)CC[C@@]1(OC(=O)CC(F)(F)F)CCc2cc(F)ccc2[C@@H]1C(C)C)CC(F)(F)F", "note": "[Example 10, 3,3,3-Trifluoro-propionic acid (1S,2S)-6-fluoro-1-isopropyl-2-[2-({3-[(3-methoxy-2-methoxymethyl-2-methyl-propyl)-(2,2,2-trifluoro-ethyl)-amino]-propyl}-methyl-amino)-ethyl]-1,2,3,4-tetrahydro-naphthalen-2-yl ester]", "values": [{"measurement": "IC50", "setting": "[1]", "result": "> 10", "unit": "µM"}, {"measurement": "EC50", "setting": "isolated mouse hearts", "result": 0.009, "unit": "µM"}]}, {"smiles": "COCC(C)(COC)CN(CCF)CCCN(C)CC[C@@]1(OC(=O)CC(F)(F)F)CCc2cc(F)ccc2[C@@H]1C(C)C", "note": "[Example 3, 3,3,3-Trifluoro-propionic acid (1S,2S)-6-fluoro-2-[2-({3-[(2-fluoro-ethyl)-(3-methoxy-2-methoxymethyl-2-methyl-propyl)-amino]-propyl}-methyl-amino)-ethyl]-1-isopropyl-1,2,3,4-tetrahydro-naphthalen-2-yl ester]", "values": [{"measurement": "IC50", "setting": "[1]", "result": 5.41, "unit": "µM"}, {"measurement": "EC50", "setting": "isolated mouse hearts", "result": 0.007, "unit": "µM"}]}, {"smiles": "COCC(C)(COC)CN(CCCN(C)CC[C@@]1(OC(=O)C(C)C)CCc2cc(F)ccc2[C@@H]1C(C)C)CC(F)(F)F", "note": "[Example 9, Isobutyric acid (1S,2S)-6-fluoro-1-isopropyl-2-[2-({3-[(3-methoxy-2-methoxymethyl-2-methyl-propyl)-(2,2,2-trifluoro-ethyl)-amino]-propyl}-methyl-amino)-ethyl]-1,2,3,4-tetrahydro-naphthalen-2-yl ester]", "values": [{"measurement": "IC50", "setting": "[1]", "result": 1.69, "unit": "µM"}]}, {"smiles": "COCC(C)(COC)CN(CCCN(C)CC[C@@]1(O)CCc2cc(F)ccc2[C@@H]1C(C)C)CC(F)F", "note": "[Example 5, (1S,2S)-2-[2-({3-[(2,2-Difluoro-ethyl)-(3-methoxy-2-methoxymethyl-2-methyl-propyl)-amino]-propyl}methyl-amino)-ethyl]-6-fluoro-1-isopropyl-1,2,3,4-tetrahydro-naphthalen-2-ol]", "values": [{"measurement": "IC50", "setting": "[1]", "result": 3.7, "unit": "µM"}]}, {"smiles": "COCC(C)(COC)CN(CCCN(C)CC[C@@]1(OC(=O)C(C)C)CCc2cc(F)ccc2[C@@H]1C(C)C)CC(F)F", "note": "[Example 6, Isobutyric acid (1S,2S)-2-[2-({3-[(2,2-difluoro-ethyl)-(3-methoxy-2-methoxymethyl-2-methyl-propyl)-amino]-propyl}-methyl-amino)-ethyl]-6-fluoro-1-isopropyl-1,2,3,4-tetrahydro-naphthalen-2-yl ester]", "values": [{"measurement": "IC50", "setting": "[1]", "result": 7.89, "unit": "µM"}, {"measurement": "EC50", "setting": "isolated mouse hearts", "result": 0.009, "unit": "µM"}]}, {"smiles": "COCC(C)(COC)CN(CCF)CCCN(C)CC[C@@]1(O)CCc2cc(F)ccc2[C@@H]1C(C)C", "note": "[Example 1, (1S,2S)-6-Fluoro-2-[2-({3-[(2-fluoro-ethyl)-(3-methoxy-2-methoxymethyl-2-methyl-propyl)-amino]-propyl}-methyl-amino)-ethyl]-1-isopropyl-1,2,3,4-tetrahydro-naphthalen-2-ol]", "values": [{"measurement": "IC50", "setting": "[1]", "result": 3.25, "unit": "µM"}]}, {"smiles": "COCC(C)(COC)CN(CCCN(C)CC[C@@]1(O)CCc2cc(F)ccc2[C@@H]1C(C)C)CC(F)(F)F", "note": "[Example 8, (1S,2S)-6-Fluoro-1-isopropyl-2-[2-({3-[(3-methoxy-2-methoxymethyl-2-methyl-propyl)-(2,2,2-trifluoro-ethyl)-amino]-propyl}-methyl-amino)-ethyl]-1,2,3,4-tetrahydro-naphthalen-2-ol]", "values": [{"measurement": "IC50", "setting": "[1]", "result": 2.88, "unit": "µM"}]}, {"smiles": "COCC(C)(COC)CN(CCF)CCCN(C)CC[C@@]1(OC(=O)CF)CCc2cc(F)ccc2[C@@H]1C(C)C", "note": "[Example 4, Fluoro-acetic acid (1S,2S)-6-fluoro-2-[2-({3-[(2-fluoro-ethyl)-(3-methoxy-2-methoxymethyl-2-methyl-propyl)-amino]-propyl}-methyl-amino)-ethyl]-1-isopropyl-1,2,3,4-tetrahydro-naphthalen-2-yl ester]", "values": [{"measurement": "IC50", "setting": "[1]", "result": 3.96, "unit": "µM"}]}, {"smiles": "COCC(C)(COC)CN(CCF)CCCN(C)CC[C@@]1(OC(=O)C(C)C)CCc2cc(F)ccc2[C@@H]1C(C)C", "note": "[Example 2, Isobutyric acid (1S,2S)-6-fluoro-2-[2-({3-[(2-fluoro-ethyl)-(3-methoxy-2-methoxymethyl-2-methyl-propyl)-amino]-propyl}-methyl-amino)-ethyl]-1-isopropyl-1,2,3,4-tetrahydro-naphthalen-2-yl ester]", "values": [{"measurement": "IC50", "setting": "[1]", "result": 3.15, "unit": "µM"}]}, {"smiles": "COCC(C)(COC)CN(CCCN(C)CC[C@@]1(OC(=O)CC(F)(F)F)CCc2cc(F)ccc2[C@@H]1C(C)C)CC(F)F", "note": "[Example 7, 3,3,3-Trifluoro-propionic acid (1S,2S)-2-[2-({3-[(2,2-difluoro-ethyl)-(3-methoxy-2-methoxymethyl-2-methyl-propyl)-amino]-propyl}-methyl-amino)-ethyl]-6-fluoro-1-isopropyl-1,2,3,4-tetrahydro-naphthalen-2-yl ester]", "values": [{"measurement": "IC50", "setting": "[1]", "result": 6.34, "unit": "µM"}]}]}
